Strand notation (5' to 3'): a small letter for the sugar, then the base; units joined by * are phosphorothioate-linked, units joined directly phosphodiester-linked; [ ] holds rarer units or linkages, { } end groups; capitals alone tell only the bases. d = 2'-deoxy (DNA); r = 2'-OH (RNA)
Tests used:
SH-SY5Y cells [1] = experiment: Topotecan IC50 in siRNA-transfected cells, Cell Titer Glo 2.0 viability (Example 10); format: cell-based; details: for Data Summary: effect of knockdown on sensitivity to topotecan: SH-SY5Y; for IC50: SH-SY5Y cells transfected with the labelled siRNA, topotecan added 24 hours post transfection, 72 hour incubation
Experimental: (§1) GPC2 mRNA expression was reduced and changes in cell viability were assessed in multiple neuroblastoma cell lines. Cells were transfected with either a control siRNA or with GPC2 siRNA sequences 5 or 7 from Table 7 using the RNAiMAX Lipofectamine kit (Invitrogen, Carlsbad, Calif.) as previously described in 96 wells for viability assays. Topotecan was added at increasing concentrations (0-5 uM) to transfected cells at 24 hours post transfection. Following a 72 hour incubation period, viability measurements were made using Cell Titer Glo 2.0.

KELLY cells [2] = experiment: as above; format: cell-based; details: for Data Summary: effect of knockdown on sensitivity to topotecan: KELLY; for IC50: KELLY cells transfected with the labelled siRNA, topotecan added 24 hours post transfection, 72 hour incubation
Experimental: as §1

SKNAS cells [3] = experiment: as above; format: cell-based; details: for Data Summary: effect of knockdown on sensitivity to topotecan: SKNAS; for IC50: SKNAS cells transfected with the labelled siRNA, topotecan added 24 hours post transfection, 72 hour incubation
Experimental: as §1

SK-N-BE2 cells [4] = experiment: as above; format: cell-based; details: for Data Summary: effect of knockdown on sensitivity to topotecan: SK-N-BE2; for IC50: SK-N-BE2 cells transfected with the labelled siRNA, topotecan added 24 hours post transfection, 72 hour incubation
Experimental: as §1

CHP212 cells = experiment: as above; format: cell-based; details: for Data Summary: effect of knockdown on sensitivity to topotecan: CHP212; for IC50: CHP212 cells transfected with the labelled siRNA, topotecan added 24 hours post transfection, 72 hour incubation
Experimental: as §1

CHLA-90 cells [5] = experiment: as above; format: cell-based; details: for Data Summary: effect of knockdown on sensitivity to topotecan: CHLA-90; for IC50: CHLA-90 cells transfected with the labelled siRNA, topotecan added 24 hours post transfection, 72 hour incubation
Experimental: as §1

KELLY cells [6] = experiment: Cyclophosphamide IC50 in siRNA-transfected cells, Cell Titer Glo 2.0 viability (Example 7); format: cell-based
Experimental: as §1, with “reduced with the indicated siRNAs” for “reduced”, “sequences 3,” for “sequences”, “Cyclophosphamide” for “Topotecan”, “(0-20” for “(0-5”, “hr” for “hours”

SKNAS cells [7] = experiment: as above; format: cell-based
Experimental: as §1, with “reduced with the indicated siRNAs” for “reduced”, “sequences 3,” for “sequences”, “Cyclophosphamide” for “Topotecan”, “(0-20” for “(0-5”, “hr” for “hours”

CHLA-136 cells [8] = experiment: as above; format: cell-based
Experimental: as §1, with “reduced with the indicated siRNAs” for “reduced”, “sequences 3,” for “sequences”, “Cyclophosphamide” for “Topotecan”, “(0-20” for “(0-5”, “hr” for “hours”

CHLA-172 cells [9] = experiment: as above; format: cell-based
Experimental: as §1, with “reduced with the indicated siRNAs” for “reduced”, “sequences 3,” for “sequences”, “Cyclophosphamide” for “Topotecan”, “(0-20” for “(0-5”, “hr” for “hours”

TOV112D cells = experiment: Cisplatin IC50 in siRNA-transfected cells, Cell Titer Glo 2.0 viability (Example 5); format: cell-based
Experimental: (§2) GPC2 mRNA was reduced using the indicated siRNAs and changes in cell viability were assessed in multiple cancer cell lines, in combination with Cisplatin treatment. Cells were transfected with either a scrambled control siRNA or with GPC2 siRNA sequences 3 or 5 from Table 7 using the RNAiMAX Lipofectamine kit (Invitrogen, Carlsbad, Calif.), as previously described, in either in 96 well (for viability assays) or 6 well format (for total RNA). Cisplatin was added at increasing concentrations (0 to 30 uM) to transfected cells at 24 hours post transfection. Following a 72 hour incubation period, cell viability was measured using Cell Titer Glo 2.0. Total RNA samples were also isolated to measure knockdown efficiency.

SH-SY5Y cells [10] = experiment: as above; format: cell-based
Experimental: as §2

KELLY cells [11] = experiment: as above; format: cell-based
Experimental: as §2

SKNAS cells [12] = experiment: as above; format: cell-based
Experimental: as §2

SK-N-BE2 cells [13] = experiment: as above; format: cell-based
Experimental: as §2

COV362 cells = experiment: as above; format: cell-based
Experimental: as §2

CHLA-136 cells [14] = experiment: as above; format: cell-based
Experimental: as §2

CHLA-90 cells [15] = experiment: as above; format: cell-based
Experimental: as §2

RH41 cells = experiment: as above; format: cell-based
Experimental: as §2

CHLA-172 cells [16] = experiment: as above; format: cell-based
Experimental: as §2

SKNAS cells [17] = experiment: Carboplatin IC50 in siRNA-transfected cells, Cell Titer Glo 2.0 viability (Example 6); format: cell-based
Experimental: as §1, with “reduced using the indicated siRNAs” for “reduced”, “sequences 3,” for “sequences”, “Carboplatin” for “Topotecan”, “(0 to 150” for “(0-5”

GPC2 mRNA = GPC2 mRNA knockdown by qPCR in TC-32 Ewing's sarcoma cells transfected with siRNA (Example 2); format: cell-based, human; details: TC-32 cells; 72 hours post transfection
Experimental: siRNAs 1-5 from Table 7 were diluted to 40 nM in OptiMEM media and mixed in a 1:3 ratio (weight by volume) with RNAiMAX. This was incubated for 15 minutes at room temperature and dispensed onto cells plated in a 6 well tissue culture plate. Total RNA samples were collected at either 72 hours post transfection to compare knockdown efficiency (FIG. 2A), or at 24, 48, 72 or 96 hours post transfection to determine the extent of GPC2 mRNA knockdown over time (FIG. 2B). Expression levels of mRNA of GPC2 were measured in these samples using primers specific for GPC2 obtained commercially from Thermofisher (Carlsbad, Calif.) and standard qPCR technique.

## GPC2 siRNA 5: siRNA duplex: sense CUCAGUAGCCCAGCACUCU[dT][dT] (SEQ ID NO: 211), anti-sense AGAGUGCUGGGCUACUGAG[dT][dT] (SEQ ID NO: 212) (sense CUCAGUAGCCCAGCACUCUTT; antisense AGAGUGCUGGGCUACUGAGTT; sugars from the 5' end r19 d2, backbone not given here; listed as Homo sapiens)
SH-SY5Y cells [1]
  Data Summary: effect of knockdown on sensitivity to topotecan: not increase sensitivity to topotecan
  IC50: 0.04 µM
KELLY cells [2]
  Data Summary: effect of knockdown on sensitivity to topotecan: not increase sensitivity to topotecan
  IC50: 0.06 µM
SKNAS cells [3]
  Data Summary: effect of knockdown on sensitivity to topotecan: increases sensitivity to topotecan
  IC50: 0.02 µM
SK-N-BE2 cells [4]
  Data Summary: effect of knockdown on sensitivity to topotecan: not increase sensitivity to topotecan
  IC50: 0.01 µM
CHP212 cells
  Data Summary: effect of knockdown on sensitivity to topotecan: not increase sensitivity to topotecan
  IC50: 0.01 µM
CHLA-90 cells [5]
  Data Summary: effect of knockdown on sensitivity to topotecan: not increase sensitivity to topotecan
  IC50: 0.11 µM
KELLY cells [6]; KELLY
  Data Summary: effect of knockdown on sensitivity to cyclophosphamide: increases sensitivity to
KELLY cells [6]; KELLY cells transfected with the labelled siRNA, cyclophosphamide added 24 hr post transfection, 72 hour incubation
  IC50: 1 µM
SKNAS cells [7]; SKNAS
  Data Summary: effect of knockdown on sensitivity to cyclophosphamide: increases sensitivity to
SKNAS cells [7]; SKNAS cells transfected with the labelled siRNA, cyclophosphamide added 24 hr post transfection, 72 hour incubation
  IC50: 0.48 µM
CHLA-136 cells [8]; CHLA-136
  Data Summary: effect of knockdown on sensitivity to cyclophosphamide: not increase sensitivity
CHLA-136 cells [8]; CHLA-136 cells transfected with the labelled siRNA, cyclophosphamide added 24 hr post transfection, 72 hour incubation
  IC50: 5 µM
CHLA-172 cells [9]; CHLA-172
  Data Summary: effect of knockdown on sensitivity to cyclophosphamide: increases sensitivity to
CHLA-172 cells [9]; CHLA-172 cells transfected with the labelled siRNA, cyclophosphamide added 24 hr post transfection, 72 hour incubation
  IC50: 10 µM
TOV112D cells; TOV112D
  Data Summary: effect of knockdown on sensitivity to cisplatin: does not increase
TOV112D cells; TOV112D cells transfected with the labelled siRNA, cisplatin added 24 hours post transfection, 72 hour incubation
  IC50: 7 µM
SH-SY5Y cells [10]; SH-SY5Y
  Data Summary: effect of knockdown on sensitivity to cisplatin: increases sensitivity to
SH-SY5Y cells [10]; SH-SY5Y cells transfected with the labelled siRNA, cisplatin added 24 hours post transfection, 72 hour incubation
  IC50: 9.3 µM
KELLY cells [11]; KELLY
  Data Summary: effect of knockdown on sensitivity to cisplatin: increases sensitivity to
KELLY cells [11]; KELLY cells transfected with the labelled siRNA, cisplatin added 24 hours post transfection, 72 hour incubation
  IC50: 2.5 µM
SKNAS cells [12]; SKNAS
  Data Summary: effect of knockdown on sensitivity to cisplatin: increases sensitivity to
SKNAS cells [12]; SKNAS cells transfected with the labelled siRNA, cisplatin added 24 hours post transfection, 72 hour incubation
  IC50: 9 µM
SK-N-BE2 cells [13]; SK-N-BE2
  Data Summary: effect of knockdown on sensitivity to cisplatin: increases sensitivity to
SK-N-BE2 cells [13]; SK-N-BE2 cells transfected with the labelled siRNA, cisplatin added 24 hours post transfection, 72 hour incubation
  IC50: 3 µM
COV362 cells; COV362
  Data Summary: effect of knockdown on sensitivity to cisplatin: does not increase
COV362 cells; COV362 cells transfected with the labelled siRNA, cisplatin added 24 hours post transfection, 72 hour incubation
  IC50: 18 µM
CHLA-136 cells [14]; CHLA-136
  Data Summary: effect of knockdown on sensitivity to cisplatin: increases sensitivity to
CHLA-136 cells [14]; CHLA-136 cells transfected with the labelled siRNA, cisplatin added 24 hours post transfection, 72 hour incubation
  IC50: 6 µM
CHLA-90 cells [15]; CHLA-90
  Data Summary: effect of knockdown on sensitivity to cisplatin: increases sensitivity to
CHLA-90 cells [15]; CHLA-90 cells transfected with the labelled siRNA, cisplatin added 24 hours post transfection, 72 hour incubation
  IC50: 15 µM
RH41 cells; RH41
  Data Summary: effect of knockdown on sensitivity to cisplatin: increases sensitivity to
RH41 cells; RH41 cells transfected with the labelled siRNA, cisplatin added 24 hours post transfection, 72 hour incubation
  IC50: 1 µM
CHLA-172 cells [16]; CHLA-172
  Data Summary: effect of knockdown on sensitivity to cisplatin: does not increase
CHLA-172 cells [16]; CHLA-172 cells transfected with the labelled siRNA, cisplatin added 24 hours post transfection, 72 hour incubation
  IC50: 17 µM
SKNAS cells [17]; SKNAS
  Data Summary: effect of knockdown on sensitivity to carboplatin: increases sensitivity to
SKNAS cells [17]; SKNAS cells transfected with the labelled siRNA, carboplatin added 24 hours post transfection, 72 hour incubation
  IC50: 15.3 µM
GPC2 mRNA
  Degree of GPC2 knockdown among siRNA sequences 1-5: greatest degree of GPC2 knockdown

## GPC2 siRNA 7: siRNA duplex: sense CUCCUUUCUGGUUCACACA[dT][dT] (SEQ ID NO: 215), anti-sense UGUGUGAACCAGAAAGGAG[dT][dT] (SEQ ID NO: 216) (sense rCrUrCrCrUrUrUrCrUrGrGrUrUrCrArCrArCrAdTdT; antisense rUrGrUrGrUrGrArArCrCrArGrArArArGrGrArGdTdT; listed as Homo sapiens)
SH-SY5Y cells [1]
  Data Summary: effect of knockdown on sensitivity to topotecan: not increase sensitivity to topotecan
  IC50: 0.04 µM
KELLY cells [2]
  Data Summary: effect of knockdown on sensitivity to topotecan: not increase sensitivity to topotecan
  IC50: 0.02 µM
SKNAS cells [3]
  Data Summary: effect of knockdown on sensitivity to topotecan: increases sensitivity to topotecan
  IC50: 0.02 µM
SK-N-BE2 cells [4]
  Data Summary: effect of knockdown on sensitivity to topotecan: not increase sensitivity to topotecan
  IC50: 0.01 µM
CHP212 cells
  Data Summary: effect of knockdown on sensitivity to topotecan: not increase sensitivity to topotecan
  IC50: 0.01 µM
CHLA-90 cells [5]
  Data Summary: effect of knockdown on sensitivity to topotecan: not increase sensitivity to topotecan
  IC50: 0.14 µM

Source: patent US20210171948A1, “COMPOSITIONS AND METHODS FOR TARGETING GLYPICAN-2 IN THE TREATMENT OF CANCER” (Shepherd Therapeutics, Inc., priority 2019, published 2021)
